The source of these data is patent US5684020A, “Piperazine, piperidine and 1,2,5,6-tetrahydropyridine” (Adir et Compagnie, priority 1995, dated 1997).

Molecules are shown by their SMILES. Bounds are passed on as bounds.

The subject of data set [1] is Verticalisation induced by apomorphine. The data set is described as follows: Verticalisation induced by apomorphine in the mouse. The format is in vivo. To be noted: sc, 0.5 h, s.c., apomorphine 0.75 mg/kg s.c. 30 minutes later, read-out: ID50 (dose reducing by half the average verticalisation score). The method, then:
1. Verticalisation induced by apomorphine (0.75 mg/kg, s.c.) in the mouse
This test, described by Protais et al (Psychopharmacologie, 1976, 50, 1-6) allows the evaluation of the dopaminergic antagonist activity of possible antipsychotic products. A mouse to which apomorphine has been administered and which has been placed in a cage comprising vertical bars, remains most of the time immobile at the top of the cage clinging by its 4 paws to the bars. That verticalisation behaviour is blocked if a dopaminergic antagonist product has been administered before the apomorphine.
Test: After the subcutaneous (s.c.) administration of the product or solvent (control group), the mouse is placed in a cylindrical barred cage (14 cm diam.×14 cm h) having vertical bars. Thirty minutes later, the animal receives the apomorphine dose (0.75 mg/kg, s.c.). […]
Statistical analysis: The effect of the product on verticalisation is evaluated by comparing the scores obtained for each group that has been administered a dose of product with those obtained for the control group (solvent) using a Mann and Whitney U test, with a probability p<0.05. […]

The test system of data set [2] is aggressiveness in isolated mice. Kind of data set: Test of aggressiveness in isolated mice. Type of data set: in vivo, male CD mice. Particulars: Mus musculus, sc; 30 minutes before test; read-out: ID50 (dose reducing by half number or duration of attacks). The text has this:
2. Test of aggressiveness in isolated mice
This test allows the evaluation of the intraspecies anti-aggressive activity of a product in mice that have been kept in isolation for several months.
Animals: The test uses male CD mice (Charles River) weighing from 22 to 25 g when they arrive at the animal house. On their arrival, the animals are isolated in individual cages made of opaque black polycarbonate (23×14×13 cm) with a grill lid, and are housed for a prolonged period (approximately 6 months) in the experimentation room.
Selection of pairs of mice: The selection of aggressive pairs of mice that will be used chronically in the study commences after the animals have been isolated for one month. […]
Test: The test takes place once a week. […] The latent period (in seconds) of the first attack and the number and total duration (in seconds) of the attacks are recorded. […]
Statistical analysis: The effects of a product on aggressiveness are evaluated by comparing the number and the duration of the attacks by the pairs of mice that have received the product (treated groups) with those obtained with the pairs that have received the solvent (control group) by using a variance analysis (ANOVA) followed by a Dunnett's test, with the probability p<0.05. […]

Data set [3] is described as follows: Induction of catalepsy in the rat. Particulars: in vivo, sc, 1 hour after injection, 50% of maximum 30 seconds. The source says: 3. Induction of catalepsy in the rat
The acute administration of "typical" antipsychotics to an animal induces catalepsy, that is to say the maintenance of the animal in an often abnormal posture which has been imposed upon it by the experimenter (Waldmeier, 1979). The evaluation of the cataleptogenic properties of a product in the rat thus makes it possible to know whether that product, administered to man, will or will not risk causing an extrapyramidal-type syndrome.
Test: The animals are placed in individual cages and food is withdrawn the day before the test but water taken as desired. The catalepsy test comprises placing each rear paw of the animal on the front paw of the same side and measuring the time (seconds) that the animal remains in that "crossed paws" position (maximum 30 seconds). Each animal is subjected to 3 successive tests (one every two minutes), the animal being removed from its cage and placed on the work surface. Those tests are carded out 1 hour after the subcutaneous injection or oral administration of the product or its solvent. The average value of 3 tests represents the duration of the catalepsy (seconds) for each animal. There are 5 or 6 rats per experimental group.
Statistical analysis: The effect of the product on the duration of the catalepsy is evaluated by an ANOVA, followed by a Dunnett's test, with the probability p<0.05. […]

The test system of another data set is schizophrenia patients. Particulars: Davis et al., 1983; cited from earlier work.
A further data set has as its system dopamine turnover. The data set is described as follows: Dopamine turnover (DOPAC/dopamine ratio) in rat brain structures. The format is in vivo, Male Wistar rats. Particulars: regions studied: frontal cortex, nucleus accumbens, olfactory tubercles, striatum. The method, then: by dopamine synthesis (turnover) studies in the following structures: frontal cortex (mesocortical pathway), nucleus accumbens and olfactory tubercle (mesolimbic pathway), striatum (nigrostriatal pathway). The functional dopaminergic antagonists cause an increase in the synthesis of dopamine in those structures.
Male Wistar rats (Iffa Credo, Illskirchen France) weighing 250 to 280 g are kept in a 12h/12h light/darkness cycle (light switched on at 7.30 a.m.). They have free access to water and food; the laboratory temperature is 21°±1° C. and the humidity is 60±5%.
Dopamine turnover: The effect of the products of the invention and the reference product on dopamine turnover is determined after subcutaneous injection. After a period of 30 minutes, the rats are decapitated and the brain is dissected in order to extract the striatum, the nucleus accumbens, the frontal cortex and the olfactory tubercles. The tissues are homogenised in 500 μl of HClO4 0.1M containing 0.5% Na2 S2 O5 and 0.5% EDTA Na2 and centrifuged at 15,000 g for 15 minutes at 4° C. The supernatants are diluted in the mobile phase and injected into an HPLC column (Hypersil ODS 5 μm, C18, 150×4.6mm, Thermo Separation Products, Les Ulis, France) thermostatically controlled at 25° C. […]

On to `c1ccc2c(c1)CC(CN1CCN(c3ccc4c(c3)OCCO4)CC1)C2` [Example 6, 4-(2,3-Dihydrobenzo-1,4-dioxin-6-yl)-1-(indan-2-ylmethyl)piperazine], for which the ED50 in data set [1] came to 3.88 mg/kg; in data set [2], 0.99 mg/kg. The compound also registered an ED50 at 1 h in data set [3] of more than 80 mg/kg.
As for `O=C(CCCN1CCC(O)(c2ccc(Cl)cc2)CC1)c1ccc(F)cc1` [Haloperidol], in the data set with schizophrenia patients, the “extrapyramidal symptoms (in words)” value is “often brings about the appearance of undesirable extrapyramidal symptoms (EPS) of the Parkinson's type”. For the same compound, the ED50 at 1 h in data set [3] came to 0.146 mg/kg. Further, the “effect on dopaminergic transmission (in words)” value in the data set with dopamine turnover is reported as “significant effect on dopaminergic transmission in each of the regions studied”.
As to `CN(C)CCCN1c2ccccc2Sc2ccc(Cl)cc21` [chlorpromazine], the “extrapyramidal symptoms (in words)” value with schizophrenia patients is listed as “often brings about the appearance of undesirable extrapyramidal symptoms (EPS) of the Parkinson's type”.
Turning to `CN1CCN(C2=Nc3cc(Cl)ccc3Nc3ccccc32)CC1` [clozapine], the “extrapyramidal symptoms (in words)” value in the data set with schizophrenia patients was “cause few extrapyramidal symptoms”.
